From patent US9560851B2, “Pesticidal mixtures including spiroheterocyclic pyrrolidine diones” (Syngenta Participations AG, priority 2012, dated 2017)

Assays:
[1] = tested on: Tetranychus urticae (Two-Spotted Spider Mite); experiment: Tetranychus urticae feeding/contact activity, preventive (bean leaf discs); format: in vivo; conditions: mobile stages
Text: Tetranychus urticae (Two-Spotted Spider Mite): feeding/contact activity, preventive
Bean leaf discs on agar in 24-well microtiter plates were sprayed with the DMSO test solutions of certain Mixtures (as provided by Table 45). After drying, the leaf discs were infested with mite populations of mixed ages. 8 days later, discs were checked for mortality against mobile stages.

[2] = tested on: Myzus persicae (Green Peach Aphid); experiment: Myzus persicae feeding/residual contact activity, preventive (sunflower leaf discs); format: in vivo; conditions: Acetamiprid alone, 6 DAT
Procedure: Myzus persicae (Green Peach Aphid):
feeding/residual contact activity, preventive
Sunflower leaf discs were placed on agar in a 24-well microtiter plate and sprayed with the DMSO test solutions of Mixtures (as provided by Table 45). After drying, the leaf discs were infested with an aphid population of mixed ages. After an incubation period of 6 DAT (days after treatment), samples were checked for mortality.

In the case of `C/C(=N\C#N)N(C)Cc1ccc(Cl)nc1` [Acetamiprid], the “AVERAGE DEAD IN % AFTER 8 DAYS” value ([1]; Table 47, Acetamiprid alone, 50 PPM AI) is reported as 0%, the “AVERAGE DEAD IN % AFTER 8 DAYS” value ([1]; Table 47, Acetamiprid alone, 100 PPM AI) is reported as 0% and the “AVERAGE DEAD IN % AFTER 8 DAYS” value ([1]; Table 47, Acetamiprid alone, 200 PPM AI) is reported as 0%. The “AVERAGE DEAD IN % AFTER 8 DAYS” value ([1]; Table 47, Acetamiprid alone, 400 PPM AI) was 0%, the “AVERAGE DEAD IN % AFTER 8 DAYS” value ([1]; Table 47, Acetamiprid alone, 800 PPM AI) was 0% and the “AVERAGE DEAD IN % AFTER 8 DAYS” value ([1]; Table 48, Acetamiprid alone, 50 PPM AI) was 0%. For the same compound, the “AVERAGE DEAD IN % AFTER 8 DAYS” value ([1]; Table 48, Acetamiprid alone, 100 PPM AI) was 0%, the “AVERAGE DEAD IN % AFTER 8 DAYS” value ([1]; Table 48, Acetamiprid alone, 200 PPM AI) was 0% and the “AVERAGE DEAD IN % AFTER 8 DAYS” value ([1]; Table 48, Acetamiprid alone, 400 PPM AI) was 0%. For the same compound, the “AVERAGE DEAD IN % AFTER 8 DAYS” value ([1]; Table 48, Acetamiprid alone, 800 PPM AI) was 0%, the “AVERAGE DEAD IN % AFTER 6 DAYS” value ([2]; 0.1 PPM AI) was 0% and the “AVERAGE DEAD IN % AFTER 6 DAYS” value ([2]; 0.2 PPM AI) was 0%. The “AVERAGE DEAD IN % AFTER 6 DAYS” value ([2]; 0.4 PPM AI) was 0%, the “AVERAGE DEAD IN % AFTER 6 DAYS” value ([2]; 0.8 PPM AI) was 0% and the “AVERAGE DEAD IN % AFTER 6 DAYS” value ([2]; 1.6 PPM AI) was 27%.
